# Measurements as given in patent EP4725946A1, “IRAK4 DEGRADATION AGENT AND USE THEREOF” (Guangzhou Unirise Pharmaceutical Co., Ltd., priority 2023, dated 2024).
# Read-outs that look alike come from different tables or passages of the source.
# Columns and labels:
# [1] = Pharmacokinetic study in mice; type: in vivo; settings: male mice, plasma
# Experimental: Six male mice weighing 20-30 g were randomly divided into two groups. One group received an intravenous (IV) administration of the test compound at a dose of 2 mg/kg, while the other group received an oral (gavage) administration at a dose of 10 mg/kg. Blood samples were collected at 0.083, 0.25, 0.5, 1, 2, 4, 6, 8, and 24 hours post-administration. Plasma samples were processed and analyzed using LC/MS/MS in MRM)mode. A validated standard curve was established for the quantitative determination of the target compound in plasma, enabling the generation of plasma drug concentration-time profiles. Pharmacokinetic parameters were calculated using WinNonlin software with a non-compartmental model.
# IRAK4 protein = biological target: T1, IRAK4 protein (Homo sapiens, UniProt Q9NWZ3); test: IRAK4 Degradation Assay in THP-1 Cells (Western Blot); type: cell-based; set-up: endogenous in cells; host or cells: THP-1 cells
# T1 sequence (Q9NWZ3 1-460): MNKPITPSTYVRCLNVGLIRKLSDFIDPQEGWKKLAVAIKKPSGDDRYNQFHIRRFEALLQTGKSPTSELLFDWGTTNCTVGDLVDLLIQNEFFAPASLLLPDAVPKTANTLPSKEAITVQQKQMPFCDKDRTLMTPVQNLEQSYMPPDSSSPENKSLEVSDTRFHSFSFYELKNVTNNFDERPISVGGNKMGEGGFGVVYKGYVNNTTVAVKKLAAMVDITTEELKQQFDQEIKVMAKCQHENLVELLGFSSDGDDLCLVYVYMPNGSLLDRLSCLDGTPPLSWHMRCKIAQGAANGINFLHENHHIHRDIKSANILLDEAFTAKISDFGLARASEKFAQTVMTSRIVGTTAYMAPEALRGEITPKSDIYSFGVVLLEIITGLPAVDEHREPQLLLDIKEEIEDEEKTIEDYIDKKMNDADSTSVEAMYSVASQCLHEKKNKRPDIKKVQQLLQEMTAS
# Experimental: In a 6-well cell culture plate, an appropriate number of THP-1 cells were seeded. The plate was placed in a 5% CO2 incubator at 37°C for overnight culture. Then, the test compound's dimethyl sulfoxide solution was added, with the final concentration ranging from 0.0128 to 1000 nM. After continuous culture for 24 hours, the culture medium was removed, and the cells were collected in a 1.5 mL centrifuge tube. After adding lysis buffer and grinding thoroughly, the mixture was placed on ice for 30 minutes. It was then centrifuged at 15,000 xg and 4°C for 20 minutes. The supernatant was taken, and the level of IRAK4 protein was detected by Western Blot.
# [2] = THP-1, THP-1 cells, 24 hours, 0.0128 to 1000 nM, IRAK4 protein level by Western Blot, read-out: Dmax%
# [3] = THP-1 cells, 24 hours, 0.0128 to 1000 nM, IRAK4 protein level by Western Blot, read-out: DC50
# [4] = mouse, iv, i.v. (2 mg/kg), read-out: AUC0-t
# [5] = mouse, po, p.o. (10 mg/kg), read-out: AUC0-t
# [6] = mouse, po, p.o. (10 mg/kg), read-out: Cmax
# [7] = THP-1 cells, 24 hours, 0.0128 to 1000 nM, IRAK4 protein level by Western Blot, read-out: Dmax%
AUC(0-t) ([1]; i.v. (2 mg/kg)) [ng·h/mL],T1/2 ([1]; i.v. (2 mg/kg)) [h],AUC(0-t) ([1]; p.o. (10 mg/kg)) [ng·h/mL],Cmax ([1]; p.o. (10 mg/kg)) [ng/mL],T1/2 ([1]; p.o. (10 mg/kg)) [h],"Tmax ([1]; mouse, po, p.o. (10 mg/kg)) [h]",DC50 (IRAK4 protein; [3]) [nM],"half-life ([1]; mouse, iv, i.v. (2 mg/kg)) [h]",Dmax (IRAK4 protein; [7]) [%],SMILES,Dmax (IRAK4 protein; [2]) [%],"AUC(0-t) [1, 4] [ng·h/mL]","half-life ([1]; mouse, po, p.o. (10 mg/kg)) [h]","AUC(0-t) [1, 5] [ng·h/mL]","Cmax [1, 6] [ng/mL]",DC50 (IRAK4 protein) [nM],Dmax (IRAK4 protein; THP-1) [%]
10556,–,23388,–,4.34,2,4.69,3.78,93.4,Cn1c(=O)n(C2CCC(=O)NC2=O)c2cccc(C#CCO[C@H]3CC[C@H](CN4CCC5(CC4)Cc4cc(NC(=O)c6coc7cccnc67)c(N6CCC(CO)CC6)cc4O5)CC3)c21 (stereo partly drawn) [Compound 35],–,–,–,–,2070,–,–
–,–,–,–,–,2,2.27,2.84,86.5,Cc1cnc2c(C(=O)Nc3cc4c(cc3N3CCC(CO)CC3)OC3(CCN(C[C@H]5CC[C@H](OCC#Cc6cccc7c6n(C)c(=O)n7C6CCC(=O)NC6=O)CC5)CC3)C4)cnn2c1 (stereo partly drawn) [Compound 36],–,8730,3.22,18000,1740,–,–
–,–,–,–,–,4,3.32,3.36,90.5,Cn1c(=O)n(C2CCC(=O)NC2=O)c2cccc(C#CCO[C@H]3CC[C@H](CN4CCC5(CC4)Cc4cc(NC(=O)c6cnn7cc(Cl)cnc67)c(N6CCC(CO)CC6)cc4O5)CC3)c21 (stereo partly drawn) [Compound 37],–,12100,3.94,29300,2150,–,–
11671,4.07,26962,2277,4.27,4,2.81,–,88.8,Cn1c(=O)n(C2CCC(=O)NC2=O)c2cccc(C#CCO[C@H]3CC[C@H](CN4CCC5(CC4)Cc4cc(NC(=O)c6cnn7cc(F)cnc67)c(N6CCC(CO)CC6)cc4O5)CC3)c21 (stereo partly drawn) [Compound 38],–,–,–,–,–,–,–
3192,–,7391,1190,4.40,2,1.52,2.02,87.4,Cn1c(=O)n(C2CCC(=O)NC2=O)c2cccc(C#CCO[C@H]3CC[C@H](CN4CCC5(CC4)Cc4cc(NC(=O)c6cnc7cccnn67)c(N6CCC(CO)CC6)cc4O5)CC3)c21 (stereo partly drawn) [Compound 45],–,–,–,–,–,–,–

# The next lines start with the compound.
SMILES,AUC(0-t) ([1]; i.v. (2 mg/kg)) [ng·h/mL],T1/2 ([1]; i.v. (2 mg/kg)) [h],AUC(0-t) ([1]; p.o. (10 mg/kg)) [ng·h/mL],Cmax ([1]; p.o. (10 mg/kg)) [ng/mL],T1/2 ([1]; p.o. (10 mg/kg)) [h],"Tmax ([1]; mouse, po, p.o. (10 mg/kg)) [h]",DC50 (IRAK4 protein; [3]) [nM],"half-life ([1]; mouse, iv, i.v. (2 mg/kg)) [h]",Dmax (IRAK4 protein; [7]) [%],Dmax (IRAK4 protein; [2]) [%],"AUC(0-t) [1, 4] [ng·h/mL]","half-life ([1]; mouse, po, p.o. (10 mg/kg)) [h]","AUC(0-t) [1, 5] [ng·h/mL]","Cmax [1, 6] [ng/mL]",DC50 (IRAK4 protein) [nM],Dmax (IRAK4 protein; THP-1) [%]
Cn1c(=O)n(C2CCC(=O)NC2=O)c2cccc(C#CCO[C@H]3CC[C@H](CN4CCC5(CC4)Cc4cc(NC(=O)c6cnn7cccnc67)c(N6CCC(CO)CC6)cc4O5)CC3)c21 (relative stereo) [Compound 34],7155,2.69,14793,1540,3.70,2,2.2,–,–,90.6,–,–,–,–,–,–
Cn1c(=O)n(C2CCC(=O)NC2=O)c2cccc(C#CCO[C@H]3CC[C@@H](CN4CCC5(CC4)Cc4cc(NC(=O)c6cnn7cccnc67)c(N6CCC(CO)CC6)cc4O5)CC3)c21 (relative stereo) [Compound 55],–,–,–,–,–,1,3.44,3,–,89.3,6190,3.36,10000,1120,–,–
Cn1c(=O)n(C2CCC(=O)NC2=O)c2cccc(CN3CCC(CCN4CCC5(CC4)Oc4cc(NC(=O)c6cnn7cccnc67)c(N6CCC(CO)CC6)cc4O5)CC3)c21 (stereo not drawn) [Compound 15],–,–,–,–,–,6,2.22,22.2,86,–,14400,23.6,23200,1320,–,–
Cn1c(=O)n(C2CCC(=O)NC2=O)c2cccc(C#CCO[C@H]3CC[C@H](CN4CCC5(CC4)Cc4cc(NC(=O)c6cnn7cccnc67)c(N6CCC(C(C)(C)O)CC6)cc4O5)CC3)c21 (stereo partly drawn) [Compound 41],–,–,–,–,–,2,3.86,2.13,90.5,–,5120,2.62,21200,2990,–,–
Cn1c(=O)n(C2CCC(=O)NC2=O)c2cccc(C#CCO[C@H]3CC[C@H](CN4CCC5(CC4)Cc4cc(NC(=O)c6cnn7cccnc67)c(N6CCC(O)CC6)cc4O5)CC3)c21 (stereo partly drawn) [Compound 46],14148,2.76,42143,3493,3.82,4,1.37,–,87,–,–,–,–,–,–,–
Cn1c(=O)n(C2CCC(=O)NC2=O)c2cccc(N3CCN(C(=O)CN4CCC5(CC4)Cc4cc(NC(=O)c6cnn7cccnc67)c(N6CCC(CO)CC6)cc4O5)CC3)c21 (stereo not drawn) [Compound 70],–,–,–,–,–,2,–,3.1,–,–,7880,2.28,6680,870,1.1,91.2
Cn1nc(N2CCC(=O)NC2=O)c2cc(F)c(N3CCC(O)(CC(=O)N4CCC5(CC4)Cc4cc(NC(=O)c6cnn7cccnc67)c(N6CCC(CO)CC6)cc4O5)CC3)cc21 [Example 77],–,–,–,–,–,1,1.28,4.68,–,85.7,12900,3.85,38200,4830,–,–
Cn1c(=O)n(C2CCC(=O)NC2=O)c2cccc(N3CCC(CN4CCC5(CC4)Cc4cc(NC(=O)c6cnn7cccnc67)c(N6CCC(CO)CC6)cc4O5)CC3)c21 (stereo not drawn) [Example 78],–,–,–,–,–,1,0.86,33,–,94,32700,6.58,44900,2600,–,–
Cn1c(=O)n(C2CCC(=O)NC2=O)c2cccc(N3CCN(CCN4CCC5(CC4)Cc4cc(NC(=O)c6cnn7cccnc67)c(N6CCC(CO)CC6)cc4O5)CC3)c21 (stereo not drawn) [Example 95],–,–,–,–,–,2,–,2.16,–,–,4570,2.78,11100,1210,0.89,95
Cn1c(=O)n(C2CCC(=O)NC2=O)c2cccc(C3CCC(CN4CCC5(CC4)Cc4cc(NC(=O)c6cnn7cccnc67)c(N6CCC(CO)CC6)cc4O5)CC3)c21 (stereo not drawn) [Example 98],–,–,–,–,–,–,1.1,–,–,88.6,–,–,–,–,–,–
